Data on 22 compounds can be found in patent US9682980B2, “Positive allosteric modulators of mGluR2” (BRISTOL-MYERS SQUIBB COMPANY, priority 2012, dated 2017).

human mGluR2, sequence (Q14416 19-872): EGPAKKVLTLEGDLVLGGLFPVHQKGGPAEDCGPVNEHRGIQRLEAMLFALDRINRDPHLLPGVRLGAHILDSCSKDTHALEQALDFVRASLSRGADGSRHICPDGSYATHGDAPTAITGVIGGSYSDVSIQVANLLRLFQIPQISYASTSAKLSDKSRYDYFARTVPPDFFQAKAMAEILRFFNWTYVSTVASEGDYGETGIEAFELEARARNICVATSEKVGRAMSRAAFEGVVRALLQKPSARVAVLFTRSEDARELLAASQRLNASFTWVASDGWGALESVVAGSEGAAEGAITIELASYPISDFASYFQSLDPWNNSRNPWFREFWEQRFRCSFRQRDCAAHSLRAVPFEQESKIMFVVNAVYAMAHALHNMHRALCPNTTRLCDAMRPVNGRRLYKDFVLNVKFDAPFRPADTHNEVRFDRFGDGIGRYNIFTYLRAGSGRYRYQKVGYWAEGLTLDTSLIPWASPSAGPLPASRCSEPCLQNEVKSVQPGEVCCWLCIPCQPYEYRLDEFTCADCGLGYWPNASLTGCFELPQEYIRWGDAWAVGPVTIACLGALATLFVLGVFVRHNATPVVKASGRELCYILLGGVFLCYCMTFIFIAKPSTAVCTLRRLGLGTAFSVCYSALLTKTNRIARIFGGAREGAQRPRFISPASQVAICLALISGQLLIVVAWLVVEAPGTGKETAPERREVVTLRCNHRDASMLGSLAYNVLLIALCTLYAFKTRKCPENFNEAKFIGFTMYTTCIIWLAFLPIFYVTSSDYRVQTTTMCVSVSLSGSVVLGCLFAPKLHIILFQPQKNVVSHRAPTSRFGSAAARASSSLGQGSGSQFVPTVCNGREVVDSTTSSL

The first test relates to rats treated with phencyclidine (PCP).
Test: not given
The conditions noted are these: cited from earlier work.
As to `N[C@@]1(C(=O)O)CC[C@H]2[C@H](C(=O)O)[C@H]21` [LY-354740], the brain glutamate levels result is recorded as “lowered brain glutamate levels”.

Still in this test, the particulars now being: hyper-locomotion and working memory deficits; cited from earlier work.
`N[C@@]1(C(=O)O)CC[C@H]2[C@H](C(=O)O)[C@H]21` [LY-354740]: the “behavioral effects of PCP” value was “reversed the behavioral effects of PCP”.

In another test the target is human mGluR2 (Homo sapiens (Human), UniProt Q14416). The experiment in a line: MGluR2 cAMP assay. The class given is cell-based. The conditions noted are these: HEK293 cells clonally expressing human mGluR2, 1 μM forskolin, 1 μM LY-341495. The method in brief:
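HEK293 cells expressing human mGluR2, glutamate-starved overnight, stimulated 30 min in HBSS pH 7.0 with 1 mM IBMX, 1 μM forskolin and 1 μM LY-341495. cAMP measured by HTRF (665/618 nm ratio) against a cAMP standard curve; EC50 from 4-parameter logistic fit of % inhibition.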
Background: Cyclic AMP is a second messenger, typically raised through Gs and lowered through Gi signalling.
The term EC50 denotes the midpoint of the concentration-response curve. `FC(F)(F)Cc1nnc2c(Cl)c(N3CCC(c4ccccc4C(F)(F)F)CC3)cnn12` [Example 66, 8-Chloro-3-(2,2,2-trifluoroethyl)-7-(4-(2-(trifluoromethyl)phenyl)piperidin-1-yl)-[1,2,4]triazolo[4,3-b]pyridazine] registered an EC50 of 23 nM. Turning to `Fc1ccccc1C1CCN(c2ncn3c(CC(F)(F)F)nnc3c2Cl)CC1` [Example 67, 8-Chloro-7-(4-(2-fluorophenyl)piperidin-1-yl)-3-(2,2,2-trifluoroethyl)-[1,2,4]triazolo[4,3-c]pyrimidine], the half-maximal effective concentration (EC50) was 5 nM.

`Fc1ccccc1C1CCN(c2ncn3c(CC4CC4)nnc3c2Cl)CC1` [Example 68, 8-Chloro-3-(cyclopropylmethyl)-7-(4-(2-fluorophenyl)piperidin-1-yl)-[1,2,4]triazolo[4,3-c]pyrimidine] registered an EC50 of 4 nM. Consider `Fc1ccc(C2CCN(c3ncn4c(CC(F)(F)F)nnc4c3Cl)CC2)cc1` [Example 69, 8-Chloro-7-(4-(4-fluorophenyl)piperidin-1-yl)-3-(2,2,2-trifluoroethyl)-[1,2,4]triazolo[4,3-c]pyrimidine], for which the EC50 amounted to 438 nM. As for `COc1cccc(F)c1C1CCN(c2cnn3c(CC4CC4)nnc3c2C(F)(F)F)CC1` [Example 70, 3-(Cyclopropylmethyl)-7-(4-(2-fluoro-6-methoxyphenyl)piperidin-1-yl)-8-(trifluoromethyl)-[1,2,4]triazolo[4,3-b]pyridazine], the concentration for a half-maximal effect (EC50) was found to be 3 nM. On the same count and under the same terms, for `COc1cccc(F)c1C1CCN(c2cnn3c(CC4CC4)nnc3c2C(F)(F)F)CC1` [Example 71, 3-(Cyclopropylmethyl)-7-(4-(2-fluoro-6-methoxyphenyl)piperidin-1-yl)-8-(trifluoromethyl)-[1,2,4]triazolo[4,3-b]pyridazine] the value was 4 nM; for `N#Cc1ccccc1C1CCN(c2cnn3c(CC4CC4)nnc3c2Cl)CC1` [Example 72, 2-(1-(8-Chloro-3-(cyclopropylmethyl)-[1,2,4]triazolo[4,3-b]pyridazin-7-yl)piperidin-4-yl)benzonitrile], 15 nM; for `N#Cc1ccccc1C1CCN(c2cnn3c(CC(F)(F)F)nnc3c2Cl)CC1` [Example 73, 2-(1-(8-chloro-3-(2,2,2-trifluoroethyl)-[1,2,4]triazolo[4,3-b]pyridazin-7-yl)piperidin-4-yl)benzonitrile], 18 nM.

Consider `Fc1ccc(C2CCN(c3cnn4c(CC5CC5)nnc4c3Cl)CC2)c(F)c1` [Example 74, 8-Chloro-3-(cyclopropylmethyl)-7-(4-(2,4-difluorophenyl)piperidin-1-yl)-[1,2,4]triazolo[4,3-b]pyridazine], for which the EC50 was found to be 14 nM. Still for that read-out and setting: with `Fc1ccc(C2CCN(c3cnn4c(CC(F)(F)F)nnc4c3Cl)CC2)c(F)c1` [Example 75, 8-Chloro-7-(4-(2,4-difluorophenyl)piperidin-1-yl)-3-(2,2,2-trifluoroethyl)-[1,2,4]triazolo[4,3-b]pyridazine] the figure was 16 nM. In turn, `FC(F)(F)c1cccnc1C1CCN(c2cnn3c(CC4CC4)nnc3c2Cl)CC1` [Example 76, 8-Chloro-3-(cyclopropylmethyl)-7-(4-(3-(trifluoromethyl)pyridin-2-yl)piperidin-1-yl)-[1,2,4]triazolo[4,3-b]pyridazine] yielded an EC50 of 34 nM.

Compound `N#Cc1ccccc1C1CCN(c2cnn3c(CC4CC4)nnc3c2C(F)(F)F)CC1` [Example 77, 2-(1-(3-(Cyclopropylmethyl)-8-(trifluoromethyl)-[1,2,4]triazolo[4,3-b]pyridazin-7-yl)piperidin-4-yl)benzonitrile] yielded an EC50 of 4 nM.

In turn, `N#Cc1ccccc1C1CCN(c2cnn3c(CC(F)(F)F)nnc3c2C(F)(F)F)CC1` [Example 78, 2-(1-(3-(2,2,2-Trifluoroethyl)-8-(trifluoromethyl)-[1,2,4]triazolo[4,3-b]pyridazin-7-yl)piperidin-4-yl)benzonitrile] returned a concentration giving a half-maximal response (EC50) of 7 nM. The same measure, in the same setting: with `Clc1c(N2CCC(c3ccccn3)CC2)cnn2c(CC3CC3)nnc12` [Example 79, 8-Chloro-3-(cyclopropylmethyl)-7-(4-(pyridin-2-yl)piperidin-1-yl)-[1,2,4]triazolo[4,3-b]pyridazine] the figure was 382 nM.

In the case of `COc1c(F)ccc(F)c1C1CCN(c2cnn3c(CC4CC4)nnc3c2C(F)(F)F)CC1` [Example 80, 3-(Cyclopropylmethyl)-7-(4-(3,6-difluoro-2-methoxyphenyl)piperidin-1-yl)-8-(trifluoromethyl)-[1,2,4]triazolo[4,3-b]pyridazine], the EC50 is 0.2 nM. The same measure, in the same setting: for `COc1c(F)ccc(F)c1C1CCN(c2cnn3c(CC(F)(F)F)nnc3c2C(F)(F)F)CC1` [Example 81, 7-(4-(3,6-Difluoro-2-methoxyphenyl)piperidin-1-yl)-3-(2,2,2-trifluoroethyl)-8-(trifluoromethyl)-[1,2,4]triazolo[4,3-b]pyridazine] the value was 0.4 nM; for `Clc1c(N2CCC(c3cccnc3)CC2)cnn2c(CC3CC3)nnc12` [Example 82, 8-Chloro-3-(cyclopropylmethyl)-7-(4-(pyridin-3-yl)piperidin-1-yl)-[1,2,4]triazolo[4,3-b]pyridazine], 809 nM.

In turn, `COc1cccnc1C1CCN(c2cnn3c(CC(F)(F)F)nnc3c2Cl)CC1` [Example 83, 8-Chloro-7-(4-(3-methoxypyridin-2-yl)piperidin-1-yl)-3-(2,2,2-trifluoroethyl)-[1,2,4]triazolo[4,3-b]pyridazine] yielded a concentration for a half-maximal effect (EC50) of 42 nM. Same read-out and setting: for `Fc1ccccc1C1CCN(c2cnn3c(CC4CC4)nnc3c2C(F)(F)F)CC1` [Example 84, 3-(Cyclopropylmethyl)-7-(4-(2-fluorophenyl)piperidin-1-yl)-8-(trifluoromethyl)-[1,2,4]triazolo[4,3-b]pyridazine] the value was 4 nM.

For another test, the system named is schizophrenia.
Test: not given
The conditions noted are these: cited from earlier work.
`CSCC[C@H](N)C(=O)N[C@@]1(C(=O)O)CS(=O)(=O)[C@H]2[C@H](C(=O)O)[C@H]21` [LY-2140023]: the “positive and negative symptoms in schizophrenia” value was “relief of positive and negative symptoms”.

The test system of the next test is GAD patients.
Test: not given
The conditions noted are these: cited from earlier work.
On to `C[C@H](N)C(=O)N[C@@]1(C(=O)O)CC[C@H]2[C@H](C(=O)O)[C@H]21` [LY-544344], for which the “therapeutic effects for anxiety” value is reported as “therapeutic effects”.
